Results as given in US9376423B2, “PKC-epsilon inhibitors” (The Regents of the University of California, priority 2010, dated 2016).
Read-outs that look alike come from different tables or passages of the source. Each block holds one compound with its values, some of them ahead of it.

How the values were obtained:
Format in all cases: biochemical
[1] = target: T1, PKCε (Homo sapiens, UniProt Q02156); test: FRET based LANCE Ultra kinase assay
T1 sequence (Q02156 1-737): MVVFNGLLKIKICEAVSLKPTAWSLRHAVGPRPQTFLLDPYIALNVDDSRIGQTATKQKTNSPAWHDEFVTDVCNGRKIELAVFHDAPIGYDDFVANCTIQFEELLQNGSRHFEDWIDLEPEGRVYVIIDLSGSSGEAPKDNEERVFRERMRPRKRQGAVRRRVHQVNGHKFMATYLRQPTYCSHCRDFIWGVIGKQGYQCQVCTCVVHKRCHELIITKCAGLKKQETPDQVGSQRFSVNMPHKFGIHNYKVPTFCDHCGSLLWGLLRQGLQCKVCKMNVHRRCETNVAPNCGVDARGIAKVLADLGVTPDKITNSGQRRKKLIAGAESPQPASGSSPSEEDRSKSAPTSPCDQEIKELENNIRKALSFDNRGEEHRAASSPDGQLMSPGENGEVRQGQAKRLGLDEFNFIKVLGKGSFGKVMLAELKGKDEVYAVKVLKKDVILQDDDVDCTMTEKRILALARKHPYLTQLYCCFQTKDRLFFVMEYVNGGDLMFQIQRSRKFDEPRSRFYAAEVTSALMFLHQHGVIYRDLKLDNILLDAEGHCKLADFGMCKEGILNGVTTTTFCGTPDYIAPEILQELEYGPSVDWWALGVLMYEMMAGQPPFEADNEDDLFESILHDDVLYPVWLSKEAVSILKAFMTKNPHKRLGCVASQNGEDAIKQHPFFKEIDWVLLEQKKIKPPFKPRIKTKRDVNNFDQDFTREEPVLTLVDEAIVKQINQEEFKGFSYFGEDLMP
Procedure: Certain compounds of this invention were tested in the captioned assay.

[2] = target: T1, PKCε; test: Inhibition of PKCε (Example 4); details: for IC50: ± SE, read-out: Log IC50 (M) PKCε (converted)
[3] = target: T2, PKCγ (Homo sapiens, UniProt P05129); test: Inhibition of conventional PKCγ (Example 4); details: 10 μM inhibitor; n = 3; read-out: Percent inhibition of PKC activity, PKCγ
T2 construct: purchased Invitrogen (Carlsbad, Calif., USA)
Source text: (§1) Compound selectivity for inhibiting PKCε and not other PKC isozymes or ROCK1 can be determined according to the following assay. Specificity counter screens can be performed against one member of each subclass of PKCs (conventional, novel and atypical).
(§2) For example, to measure inhibition of conventional PKCγ, novel PKCδ, and atypical PKCζ, the same kinase assay disclosed above for PKCε can be used with recombinant human PKCγ, PKCδ, or PKCζ purchased from Invitrogen (Carlsbad, Calif., USA) in place of PKCε, with 0.4 mM CaCl2 assay buffer for PKCγ.

[4] = target: T3, PKCδ (Homo sapiens, UniProt Q05655); test: Inhibition of novel PKCδ (Example 4); details: n = 3; for inhibition at 10 µM: 10 μM inhibitor, read-out: Percent inhibition of PKC activity, PKCδ; for IC50: ± SE, read-out: Log IC50 (M) PKCδ (converted)
T3 construct: purchased Invitrogen (Carlsbad, Calif., USA)
Source text: as §1, §2

[5] = target: T4, PKCθ (Homo sapiens, UniProt Q04759); test: Inhibition of novel PKCθ (Example 4); details: n = 3; for inhibition at 10 µM: 10 μM inhibitor, read-out: Percent inhibition of PKC activity, PKCθ; for IC50: ± SE, read-out: Log IC50 (M) PKCθ (converted)
T4 construct: purchased Invitrogen P2996
Source text: Inhibition of PKC theta activity can be measured using the same primary phosphotransferase assay for PKCε except one substitutes recombinant human PKC theta purchased from Invitrogen for PKCε. PKC theta can also be assayed with a fluorescence polarization (FP) assay using the commercially available Protein Kinase C Assay Kit, Red, from Invitrogen (Product ID No P2941), essentially in accordance with the protocol supplied by the manufacturer. The substrate used is […] (MW 1561), which can be obtained from Invitrogen (Product ID No P2760). The isozyme PKC theta can be obtained from Invitrogen (Product ID No P2996).

[6] = target: T5, PKCζ (Homo sapiens, UniProt Q05513); test: Inhibition of atypical PKCζ (Example 4); details: for activity against atypical PKCζ: 10 μM; for inhibition at 10 µM: 10 μM inhibitor, n = 3, read-out: Percent inhibition of PKC activity, PKCζ
T5 construct: purchased Invitrogen (Carlsbad, Calif., USA)
T5 sequence (Q05513 1-592): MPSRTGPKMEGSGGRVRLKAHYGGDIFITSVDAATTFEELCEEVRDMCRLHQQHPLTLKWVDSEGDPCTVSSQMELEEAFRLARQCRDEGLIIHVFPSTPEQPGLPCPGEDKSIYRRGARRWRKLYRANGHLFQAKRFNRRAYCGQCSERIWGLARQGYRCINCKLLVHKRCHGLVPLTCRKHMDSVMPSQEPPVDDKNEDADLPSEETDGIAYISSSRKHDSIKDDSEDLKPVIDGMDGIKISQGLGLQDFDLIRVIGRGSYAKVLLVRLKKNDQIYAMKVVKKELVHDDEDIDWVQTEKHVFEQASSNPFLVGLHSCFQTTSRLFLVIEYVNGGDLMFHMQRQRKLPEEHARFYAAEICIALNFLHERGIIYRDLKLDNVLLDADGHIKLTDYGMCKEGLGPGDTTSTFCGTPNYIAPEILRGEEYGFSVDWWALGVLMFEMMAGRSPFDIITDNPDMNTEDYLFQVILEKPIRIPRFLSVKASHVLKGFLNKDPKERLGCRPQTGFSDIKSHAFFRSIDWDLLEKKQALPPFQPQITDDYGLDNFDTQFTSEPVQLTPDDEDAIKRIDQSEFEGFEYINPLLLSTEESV
Source text: as §1, §2

[7] = target: T1, PKCε; test: Primary PKCε phosphotransferase assay; design: FLAG; made in house; host or cells: COS-7
Procedure: The assay mixture can contain 2 ng FLAG-tagged human PKCε expressed and purified from COS-7 cells in 25 μl kinase buffer containing 20 mM Tris-HCl, pH 7.4, 0.25 mM EGTA, 0.1 mg/ml BSA, 0.72% TritonX-100, 10 mM MgCl2, 0.48 μg/μl L-α-phosphatidylserine (PS) and 0.107 μg/μl sn-1,2-dioleoylglecerol (DG) (Avanti Polar Lipids, Alabaster, Ala., USA), 2 μM K(Biotin)-[…], 2.5 μM ATP and 0.05 μCi [^32γ-P]ATP. After incubation at 27° C. for 90 min, the reaction is terminated by adding 12.5 μl of 7.5 M of guanidine hydrochloride. Eight microliters of reaction mixture is spotted onto a pre-cut streptavidin-coated SAM Biotin Capture membrane. […] The membrane is then air dried at room temperature for 60 min and radioactivity remaining on the membrane can be measured by liquid scintillation counting. Specific PKCε activity can then be calculated as the difference between cpms detected in the presence and absence of lipids (PS and DG). Maximal PKCε activity (positive control) can be detected in reactions lacking an inhibitor. Complete inhibition (negative control) can be measured in the presence of the general PKC inhibitor 5 μM bisindolylmaleimide I. The normalized percent inhibition (NPI) can be calculated at each concentration of inhibitor by the formula: […]
IC50 values can be calculated from normalized dose-response curves by nonlinear regression analysis. […]

[8] = selection criterion for Example 4, read-out: Ki for PKCε

T4 sequence (Q04759 whole entry): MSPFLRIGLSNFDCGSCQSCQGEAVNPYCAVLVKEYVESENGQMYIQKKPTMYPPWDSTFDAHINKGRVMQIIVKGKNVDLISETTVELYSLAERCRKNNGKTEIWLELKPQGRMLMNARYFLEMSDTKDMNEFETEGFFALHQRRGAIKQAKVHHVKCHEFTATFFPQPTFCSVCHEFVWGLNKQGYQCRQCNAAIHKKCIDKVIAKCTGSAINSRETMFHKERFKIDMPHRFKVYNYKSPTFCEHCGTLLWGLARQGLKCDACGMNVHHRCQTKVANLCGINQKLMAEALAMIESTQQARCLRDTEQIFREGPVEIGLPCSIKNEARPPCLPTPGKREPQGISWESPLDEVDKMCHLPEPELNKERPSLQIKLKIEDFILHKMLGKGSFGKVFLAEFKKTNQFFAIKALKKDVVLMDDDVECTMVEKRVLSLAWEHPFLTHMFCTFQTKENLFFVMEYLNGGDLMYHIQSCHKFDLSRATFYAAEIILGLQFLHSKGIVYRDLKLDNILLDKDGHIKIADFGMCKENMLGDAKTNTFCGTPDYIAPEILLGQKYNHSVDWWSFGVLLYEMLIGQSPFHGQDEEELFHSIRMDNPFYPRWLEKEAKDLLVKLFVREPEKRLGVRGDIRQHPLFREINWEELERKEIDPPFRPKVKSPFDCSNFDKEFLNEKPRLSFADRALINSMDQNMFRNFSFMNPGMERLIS
T3 sequence (Q05655 whole entry): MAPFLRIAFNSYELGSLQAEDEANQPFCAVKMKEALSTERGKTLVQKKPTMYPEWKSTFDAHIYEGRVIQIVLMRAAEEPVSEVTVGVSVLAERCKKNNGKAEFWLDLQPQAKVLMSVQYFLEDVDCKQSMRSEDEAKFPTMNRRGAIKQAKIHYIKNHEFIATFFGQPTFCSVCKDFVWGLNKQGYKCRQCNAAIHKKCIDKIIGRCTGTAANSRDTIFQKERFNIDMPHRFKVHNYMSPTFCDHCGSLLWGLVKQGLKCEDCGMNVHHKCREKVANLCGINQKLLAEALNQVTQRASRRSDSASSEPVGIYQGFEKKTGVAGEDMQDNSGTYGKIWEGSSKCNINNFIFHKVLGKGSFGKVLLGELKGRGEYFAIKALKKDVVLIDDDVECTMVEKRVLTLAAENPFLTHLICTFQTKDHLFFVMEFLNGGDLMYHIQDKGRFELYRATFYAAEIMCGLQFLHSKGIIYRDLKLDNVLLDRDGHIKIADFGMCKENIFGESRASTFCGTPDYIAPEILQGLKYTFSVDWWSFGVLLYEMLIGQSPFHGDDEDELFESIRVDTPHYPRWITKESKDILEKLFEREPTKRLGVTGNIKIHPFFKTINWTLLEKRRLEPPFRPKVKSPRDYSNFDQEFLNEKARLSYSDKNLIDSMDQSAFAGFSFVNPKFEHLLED

Structure (SMILES): NC(CNC(=O)C1(c2ccc(F)cc2)CC1)[C@H]1CC[C@H](C(=O)Nc2ccncc2)CC1 (stereo partly shown) [Compound 3]
IC50 ([1]; read-out: Log IC50 (converted)): 146 nM

Structure (SMILES): Cl.NC(CNC(=O)C1(c2ccc(F)cc2)CCCC1)[C@H]1CC[C@H](C(=O)Nc2ccncc2)CC1 (stereo partly shown) [Compound 5]
Ki ([2]; n = 3, read-out: Ki (nM) PKCε): 12.8 nM | Ki [2, 8]: < 20 nM | IC50 ([2]; n = 3): 4.27e-08 M | inhibition at 10 µM [3]: 17 ± 1.3% | IC50 ([1]; read-out: IC50): 42.6 nM | IC50 ([1]; read-out: Log IC50 (converted)): 42.7 nM | inhibition at 10 µM [4]: 96.4 ± 1% | Ki [4]: 125 nM | IC50 [4]: 5.25e-07 M | inhibition at 10 µM [5]: 94.4 ± 1% | Ki [5]: 86.9 nM | IC50 [5]: 3.63e-07 M | activity against atypical PKCζ [6]: almost no activity | inhibition at 10 µM [6]: 6.3 ± 2.1%

Structure (SMILES): CC(C)(C(=O)NCC(N)[C@H]1CC[C@H](C(=O)Nc2ccncc2)CC1)c1ccc(Cl)cc1.Cl (stereo partly shown) [Compound 9]
Ki ([2]; n = 3, read-out: Ki (nM) PKCε): 9.3 nM | Ki [2, 8]: < 20 nM | IC50 ([2]; n = 3): 3.8e-08 M | inhibition at 10 µM [3]: 30 ± 3.3% | IC50 ([1]; read-out: Log IC50 (converted)): 40 nM | inhibition at 10 µM [4]: 98.9 ± 0.6% | Ki [4]: 66.5 nM | IC50 [4]: 2.69e-07 M | inhibition at 10 µM [5]: 99.6 ± 1.3% | Ki [5]: 67 nM | IC50 [5]: 2.75e-07 M | activity against atypical PKCζ [6]: almost no activity | inhibition at 10 µM [6]: 8.9 ± 1.8%

Structure (SMILES): NC(CNC(=O)C1(c2ccc(F)cc2Cl)CCCC1)[C@H]1CC[C@H](C(=O)Nc2ccncc2)CC1 (stereo partly shown) [Compound 4]
IC50 ([1]; read-out: Log IC50 (converted)): 121 nM

Structure (SMILES): NC(CC(=O)NCC1(c2ccc(Cl)cc2)CC1)[C@H]1CC[C@H](C(=O)Nc2ccncc2)CC1 (relative stereo) [Compound 2, trans-4-[1-Amino-2-[[[1-(4-chlorophenyl)cyclopropyl]methylamino]carbonyl]ethyl]-N-4-pyridinyl-cyclohexylcarboxamide]
IC50 [7]: 1690 nM | IC50 [1]: 3240 nM

Further lines, results first:

IC50 ([1]; read-out: Log IC50 (converted)): 2370 nM
Structure (SMILES): NC(C(=O)NCc1ccc(F)cc1)[C@H]1CC[C@H](C(=O)Nc2ccncc2)CC1 (stereo partly shown) [Compound 12]

IC50 ([1]; read-out: Log IC50 (converted)): 3090 nM
Structure (SMILES): NC(C(=O)NC1CCCc2ccccc21)[C@H]1CC[C@H](C(=O)Nc2ccncc2)CC1 (stereo partly shown) [Compound 11]

IC50 ([1]; read-out: IC50): 52.2 nM
Structure (SMILES): NC(CNC(=O)C1(c2ccc(F)c(F)c2)CC1)[C@H]1CC[C@H](C(=O)Nc2ccncc2)CC1 (stereo partly shown) [Compound 6]

IC50 ([1]; read-out: Log IC50 (converted)): 2020 nM
Structure (SMILES): NC(C(=O)NC1COc2ccccc21)[C@H]1CC[C@H](C(=O)Nc2ccncc2)CC1 (stereo partly shown) [Compound 10]

IC50 ([1]; read-out: Log IC50 (converted)): 280 nM
Structure (SMILES): CC(C)(C(=O)NCC(N)[C@H]1CC[C@H](C(=O)Nc2ccncc2)CC1)c1cccs1 (stereo partly shown) [Compound 7]

IC50 ([1]; read-out: Log IC50 (converted)): 359 nM
Structure (SMILES): NC(CNC(=O)C1CCc2cc(Cl)ccc21)[C@H]1CC[C@H](C(=O)Nc2ccncc2)CC1 (stereo partly shown) [Compound 8]
